Measured values as given in patent US20260048047A1, “SMALL-MOLECULE ACTIVATORS OF MYCOBACTERIUM TUBERCULOSIS ADENYLYL CYCLASE” (priority 2022, published 2026).

Tested on: M. tuberculosis
Test: Extracellular activity against M. tuberculosis in cholesterol media (Alamar Blue reduction assay)
Type: cell-based, Mycobacterium tuberculosis
Conditions: Mycobacterium tuberculosis, 240 h, 7H12-Cholesterol media, 10 days; read-out: Cholesterol broth: alamar blue--EC50

SMILES | EC50 [nM]
Cc1nonc1CC(=O)N1CCC(c2nc(C3CCCC4CC43)no2)CC1 (centres unmarked) [Compound 72, 1-(4-(3-(bicyclo[4.1.0]heptan-2-yl)-1,2,4-oxadiazol-5-yl)piperidin-1-yl)-2-(4-methyl-1,2,5-oxadiazol-3-yl)ethan-1-one] | > 10000
CCN(CC)C(=O)c1cn(C2CCCN(C(=O)Cc3nonc3C)C2)nn1 (centres unmarked) [Compound 245, N,N-diethyl-1-(1-(2-(4-methyl-1,2,5-oxadiazol-3-yl)acetyl)piperidin-3-yl)-1H-1,2,3-triazole-4-carboxamide] | > 10000
Cn1ncnc1CC(=O)N1C[C@H]2C[C@@H](C1)[C@@H]2c1nc(-c2ccc(Cl)cc2F)no1 [Compound 223, 1-((1R,5S,6r)-6-(3-(4-chloro-2-fluorophenyl)-1,2,4-oxadiazol-5-yl)-3-azabicyclo[3.1.1]heptan-3-yl)-2-(1-methyl-1H-1,2,4-triazol-5-yl)ethan-1-one] | 290
Cc1nonc1CC(=O)N1CCC(c2noc(C34CC(F)(C3)C4)n2)CC1 [Compound 116, 1-(4-(5-(3-fluorobicyclo[1.1.1]pentan-1-yl)-1,2,4-oxadiazol-3-yl)piperidin-1-yl)-2-(4-methyl-1,2,5-oxadiazol-3-yl)ethan-1-one] | 9230
Cc1nonc1CC(=O)N1CCCC(n2cc(C(=O)NCCO)nn2)C1 (centres unmarked) [Compound 246, N-(2-hydroxyethyl)-1-(1-(2-(4-methyl-1,2,5-oxadiazol-3-yl)acetyl)piperidin-3-yl)-1H-1,2,3-triazole-4-carboxamide] | > 10000
Cn1ncnc1CC(=O)N1CCC(n2nnc(-c3ccc(F)c(F)c3)n2)CC1 [Compound 185, 1-(4-(5-(3,4-difluorophenyl)-2H-tetrazol-2-yl)piperidin-1-yl)-2-(1-methyl-1H-1,2,4-triazol-5-yl)ethan-1-one] | 740
Cc1nccnc1CC(=O)N1CCC(c2nc(-c3ccc(F)cc3)no2)CC1 [Compound 15, 1-(4-(3-(4-fluorophenyl)-1,2,4-oxadiazol-5-yl)piperidin-1-yl)-2-(3-methylpyrazin-2-yl)ethan-1-one] | 1220
Cc1nonc1CC(=O)N1CCC(c2nc(-c3cc(F)cc(Cl)c3)no2)CC1 [Compound 119, 1-(4-(3-(3-chloro-5-fluorophenyl)-1,2,4-oxadiazol-5-yl)piperidin-1-yl)-2-(4-methyl-1,2,5-oxadiazol-3-yl)ethan-1-one] | 470
Cc1noc(CC(=O)N2CCC(c3nc(-c4cccc(Cl)c4)no3)CC2)n1 [Compound 36, 1-(4-(3-(3-chlorophenyl)-1,2,4-oxadiazol-5-yl)piperidin-1-yl)-2-(3-methyl-1,2,4-oxadiazol-5-yl)ethan-1-one] | 1630
Cc1noc(CC(=O)N2CCC(O)(c3nc(C4CCC(F)(F)CC4)no3)CC2)n1 [Compound 42, 1-(4-(3-(4,4-difluorocyclohexyl)-1,2,4-oxadiazol-5-yl)-4-hydroxypiperidin-1-yl)-2-(3-methyl-1,2,4-oxadiazol-5-yl)ethan-1-one] | > 10000
Cc1nonc1CC(=O)N1CCC(c2nc(-c3ccc(F)cc3Cl)no2)CC1 [Compound 121, 1-(4-(3-(2-chloro-4-fluorophenyl)-1,2,4-oxadiazol-5-yl)piperidin-1-yl)-2-(4-methyl-1,2,5-oxadiazol-3-yl)ethan-1-one] | 380
Cc1noc(CC(=O)N2CCC(c3nc(C4CCC5(CC4)OCCO5)no3)CC2)n1 [Compound 19, 1-(4-(3-(1,4-dioxaspiro[4.5]decan-8-yl)-1,2,4-oxadiazol-5-yl)piperidin-1-yl)-2-(3-methyl-1,2,4-oxadiazol-5-yl)ethan-1-one] | > 10000
Cc1nonc1CC(=O)N1CCC(c2nc(C3CCC3)no2)CC1 [Compound 66, 1-(4-(3-cyclobutyl-1,2,4-oxadiazol-5-yl)piperidin-1-yl)-2-(4-methyl-1,2,5-oxadiazol-3-yl)ethan-1-one] | > 25000
Cc1nonc1CC(=O)N1CCC(c2nc(-c3ccc(F)cc3C(F)(F)F)no2)CC1 [Compound 123] | 1480
Cc1nonc1CC(=O)N1CCC(c2nc(-c3ccc(F)cc3F)no2)CC1 [Compound 122, 1-(4-(3-(2,4-difluorophenyl)-1,2,4-oxadiazol-5-yl)piperidin-1-yl)-2-(4-methyl-1,2,5-oxadiazol-3-yl)ethan-1-one] | 390
Cc1nonc1CC(=O)N1CCC(c2nc(-c3ccc(Cl)cc3Cl)no2)CC1 [Compound 94, 1-(4-(3-(2,4-dichlorophenyl)-1,2,4-oxadiazol-5-yl)piperidin-1-yl)-2-(4-methyl-1,2,5-oxadiazol-3-yl)ethan-1-one] | 146
Cc1nonc1CC(=O)N1CCC(O)(c2nc(C3CCCCC3)no2)CC1 [Compound 75, 1-(4-(3-cyclohexyl-1,2,4-oxadiazol-5-yl)-4-hydroxypiperidin-1-yl)-2-(4-methyl-1,2,5-oxadiazol-3-yl)ethan-1-one] | > 10000
Cc1nonc1CC(=O)N1CCC(c2nc(-c3ccc(Cl)c(F)c3)no2)CC1 [Compound 118, 1-(4-(3-(4-chloro-3-fluorophenyl)-1,2,4-oxadiazol-5-yl)piperidin-1-yl)-2-(4-methyl-1,2,5-oxadiazol-3-yl)ethan-1-one] | 80.5
Cc1nonc1CC(=O)N1CCC(c2cc(-c3ccc(F)cc3)no2)CC1 [Compound 135, 1-(4-(3-(4-fluorophenyl)isoxazol-5-yl)piperidin-1-yl)-2-(4-methyl-1,2,5-oxadiazol-3-yl)ethan-1-one] | 1580
Cc1nonc1CC(=O)N1CCC(c2nc(-c3ccc(OC(F)F)cc3)no2)CC1 [Compound 108, 1-(4-(3-(4-(difluoromethoxy)phenyl)-1,2,4-oxadiazol-5-yl)piperidin-1-yl)-2-(4-methyl-1,2,5-oxadiazol-3-yl)ethan-1-one] | 716
Cc1nonc1CC(=O)N1CCC(c2nc(C3CCOCC3)no2)CC1 [Compound 76, 2-(4-methyl-1,2,5-oxadiazol-3-yl)-1-(4-(3-(tetrahydro-2H-pyran-4-yl)-1,2,4-oxadiazol-5-yl)piperidin-1-yl)ethan-1-one] | > 10000
Cc1nonc1CC(=O)N1CC(c2nc(-c3ccc(F)cc3)no2)C1 [Compound 257, 1-(3-(3-(4-fluorophenyl)-1,2,4-oxadiazol-5-yl)azetidin-1-yl)-2-(4-methyl-1,2,5-oxadiazol-3-yl)ethan-1-one] | > 10000
Cc1noc(CC(=O)N2CCC(c3cc(-c4ccc(F)cc4)no3)CC2)n1 [Compound 50, 1-(4-(3-(4-fluorophenyl)isoxazol-5-yl)piperidin-1-yl)-2-(3-methyl-1,2,4-oxadiazol-5-yl)ethan-1-one] | > 10000
Cc1nonc1CC(=O)N1CC2CC(C1)C2c1nc(-c2ccc(F)cc2)no1 (centres unmarked) [Compound 215, 1-(6-(3-(4-fluorophenyl)-1,2,4-oxadiazol-5-yl)-3-azabicyclo[3.1.1]heptan-3-yl)-2-(4-methyl-1,2,5-oxadiazol-3-yl)ethan-1-one] | 132
Cn1ncnc1CC(=O)N1CCC(c2nc(-c3ccc(F)c(F)c3)no2)CC1 [Compound 184, 1-(4-(3-(3,4-difluorophenyl)-1,2,4-oxadiazol-5-yl)piperidin-1-yl)-2-(1-methyl-1H-1,2,4-triazol-5-yl)ethan-1-one] | 458
Cc1noc(CC(=O)N2CCC(c3nc(C4CC5CCC4C5)no3)CC2)n1 (centres unmarked) [Compound 18, 1-(4-(3-(bicyclo[2.2.1]heptan-2-yl)-1,2,4-oxadiazol-5-yl)piperidin-1-yl)-2-(3-methyl-1,2,4-oxadiazol-5-yl)ethan-1-one] | > 10000
